Reference: publication PMC12714254, “Exploiting peptide chirality and transport to dissect the complex mechanism of action of host peptides on bacteria” (PLOS Genetics, 2025)

How the values were obtained:
S. meliloti cell cycle = test system: S. meliloti cell cycle; set-up: method as in PMID 24501120; settings: ref [12]; cited from earlier work
[1] = test system: in vitro coupled transcription-translation (GFP reporter); assay: In vitro translation assay, GFP fluorescence; type: biochemical; settings: same molarity, S3C Fig

| Substance | cell cycle changes (S. meliloti cell cycle) | translation inhibition by LL37 vs NCR247 [1] |
| --- | --- | --- |
| LL37: cationic peptide LL37 (LLGDFFRKSKEKIGKEFKRIVQRIKDFLRNLVPRTES; Antibacterial peptide LL-37; UniProt P49913 134-170, looked up) | cannot elicit cell cycle changes | very diminished phenotype as compared to the L-NCR247 and was lesser than the inhibition by D-NCR247 |
| Polymyxin B | cannot elicit cell cycle changes | – |
